According to patent US12441730B2, “PRMT5 inhibitors” (Merck Sharp & Dohme LLC, priority 2019, dated 2025):
Like-named read-outs stand apart in the source and are kept apart here.

What was measured:
[1] = test system: symmetric dimethylation of arginine (SDMA) of PRMT5 substrates in MCF-7 cells; assay: PRMT5 Cell Target Engagement (TE) Assay; assay type: cell-based; settings: 3 days treatment, SDMA high content imaging
How it was run: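 MCF-7 cells treated 3 days at 37 °C with a ten-point 1:3 titration from 10000 nM. Fixed cells immunostained with anti-SDMA and Alexa488 secondary; nuclear fluorescence quantified by high-content imaging versus DMSO wells, with IC50 from a 4-parameter fit.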

[2] = target: T1, Full-length (FL)-PRMT5-MEP50 enzyme complex (Homo sapiens, UniProt O14744); assay: PRMT5-MEP50 Enzyme Methylation Assay (Version A); assay type: biochemical
T1 construct: Full-length (FL)-PRMT5-MEP50 enzyme complex (recombinant proteins from baculovirus-transfected Sf21 cells: FL-PRMT5; MW=73837 kDa and FL-MEP50; MW=38614); made in house; host or cells: baculovirus-transfected Sf21 cells
How it was run: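 Compound was pre-incubated with enzyme for 60 min, then reacted 150 min at 37° C. at final 1.0 nM PRMT5-MEP50, 15 μM SAM and 75 nM biotinylated H4R3(Me1) peptide, in 50 mM Bicine pH 8.0 with 1% DMSO. SAMDI mass-spectrometric readout of Me1→Me2 conversion. EC50 from 4- or 7-parameter regression.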

[3] = second value of 7 parameter biphasic fit, read-out: Enzyme Methylation Assay Version A (EC50 2)
[4] = single EC50 = 4 parameter single site sigmoidal fit, EC50 1 = first value of 7 parameter biphasic fit, read-out: Enzyme Methylation Assay Version A (EC50 or EC50 1)

T1 sequence (O14744 whole entry): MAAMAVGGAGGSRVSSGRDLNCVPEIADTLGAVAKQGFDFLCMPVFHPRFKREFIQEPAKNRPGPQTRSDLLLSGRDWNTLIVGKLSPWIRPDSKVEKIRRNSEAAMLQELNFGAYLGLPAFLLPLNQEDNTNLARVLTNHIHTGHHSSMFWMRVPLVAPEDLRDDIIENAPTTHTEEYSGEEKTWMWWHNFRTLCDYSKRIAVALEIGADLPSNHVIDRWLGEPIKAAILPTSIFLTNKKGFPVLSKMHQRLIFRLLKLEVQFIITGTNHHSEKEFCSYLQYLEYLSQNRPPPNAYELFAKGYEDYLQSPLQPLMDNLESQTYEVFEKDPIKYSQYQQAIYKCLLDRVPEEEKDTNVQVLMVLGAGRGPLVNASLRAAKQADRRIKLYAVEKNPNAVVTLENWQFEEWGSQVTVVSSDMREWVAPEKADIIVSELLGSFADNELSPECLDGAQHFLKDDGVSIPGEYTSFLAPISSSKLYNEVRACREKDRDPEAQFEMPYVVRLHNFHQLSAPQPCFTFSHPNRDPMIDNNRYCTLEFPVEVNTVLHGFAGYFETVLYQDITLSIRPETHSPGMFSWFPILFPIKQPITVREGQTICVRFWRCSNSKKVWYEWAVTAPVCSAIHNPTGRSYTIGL
T1 sequence (Q9BQA1 whole entry partner): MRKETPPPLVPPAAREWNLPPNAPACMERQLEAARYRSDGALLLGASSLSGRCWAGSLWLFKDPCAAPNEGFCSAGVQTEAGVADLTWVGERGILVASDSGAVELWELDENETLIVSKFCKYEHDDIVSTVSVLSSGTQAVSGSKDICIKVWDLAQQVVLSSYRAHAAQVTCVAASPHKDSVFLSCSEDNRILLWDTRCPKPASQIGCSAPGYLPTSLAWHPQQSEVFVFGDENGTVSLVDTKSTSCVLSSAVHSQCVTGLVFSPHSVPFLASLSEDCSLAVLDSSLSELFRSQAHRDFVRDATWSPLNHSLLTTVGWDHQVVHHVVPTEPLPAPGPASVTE

Structure (SMILES)	EC50 ([1]; Homo sapiens, MCF7, 72 h)	EC50 [2, 3]	EC50 [2, 4]	EC50 [1]
O=C(c1ccc2c(O)c(CC(F)(F)F)cnc2c1)N1CC[C@]2(Cc3ccccc3CN2)[C@H](O)C1 [Example 153, ((3R,3′R)-3′-hydroxy-1,4-dihydro-2H-spiro[isoquinoline-3,4′-piperidin]-1′-yl)(4-hydroxy-3-(2,2,2-trifluoroethyl)quinolin-7-yl)methanone]	414 nM	2950 nM	4.3 nM	–
COCC1CC(C)Cn2cc(C(=O)N3CC[C@]4(Cc5ccccc5CN4)[C@H](O)C3)nc21 (single isomer, unassigned) [Example 159]	–	22400 nM	61.7 nM	527 nM
O=C(c1cn2cc(F)cc(Br)c2n1)N1CC[C@]2(Cc3ccccc3CN2)[C@H](O)C1 [Example 208, (8-bromo-6-fluoroimidazo[1,2-a]pyridin-2-yl)[(3R,3′R)-3′-hydroxy-1,4-dihydro-1′H,2H-spiro[isoquinoline-3,4′-piperidin]-1′-yl]methanone]	100 nM	692 nM	0.763 nM	–
COC(C)c1ccc2nc(C(=O)N3CC[C@]4(Cc5ccccc5CN4)[C@H](O)C3)cn2c1 (single isomer, unassigned) [Example 23, ((3R,3’R)-3′-hydroxy-1,4-dihydro-2H-spiro[isoquinoline-3,4′-piperidin]-1-yl)(6-((R or S)-1-methoxyethyl)imidazo[1,2-a]pyridin-2-yl)methanone]	–	851 nM	1.8 nM	46.4 nM
Cc1cn2cc(C(=O)N3CC[C@]4(Cc5ccccc5CN4)[C@H](O)C3)nc2c(O)n1 [Example 66, 2-{[(3R,3′R)-3′-hydroxy-1,4-dihydro-1′H,2H-spiro[isoquinoline-3,4′-piperidin]-1′-y1]carbonyl}-6-methylimidazo[1,2-a]pyrazin-8(7H)-one]	4410 nM	9330 nM	13.7 nM	–
COc1cc(Br)cn2cc(C(=O)N3CC[C@]4(Cc5ccccc5CN4)[C@H](O)C3)nc12 [Example 50, (6-bromo-8-methoxyimidazo[1,2-a]pyridin-2-yl)((3R,3’R)-3′-hydroxy-1,4-dihydro-2H-spiro[isoquinoline-3,4′-piperidin]-1′-yl)methanone]	1.48 nM	62.4 nM	0.38 nM	–
O=C1CCCN1CCOc1nc(Br)cn2cc(C(=O)N3CC[C@]4(Cc5ccccc5CN4)[C@H](O)C3)nc12 [Example 13, 1-(2-((6-bromo-2-((3R,3’R)-3′-hydroxy-1,4-dihydro-2H-spiro[isoquinoline-3,4′-piperidine]-1′-carbonyl)imidazo[1,2-a]pyrazin-8-yl)oxy)ethyl)pyrrolidin-2-one]	8.16 nM	320 nM	0.406 nM	–
COC(C)c1cc(C(F)F)cn2cc(C(=O)N3CC[C@]4(Cc5ccccc5CN4)[C@H](O)C3)nc12 (single isomer, unassigned) [Example 80]	–	–	1.25 nM	8.38 nM
O=C1Nc2cc(C(=O)N3CC[C@]4(Cc5ccccc5CN4)[C@H](O)C3)ccc2OC1C1CC1 (single isomer, unassigned) [Example 106, (2R or 2S)-2-cyclopropyl-6-((3R,3′R)-3′-hydroxy-1,4-dihydro-2H-spiro[isoquinoline-3,4′-piperidine]-1′-carbonyl)-2H-benzo[b][1,4]oxazin-3(4H)-one]	–	1010 nM	0.43 nM	36.8 nM
Cc1cc(Br)cn2cc(C(=O)N3CC[C@]4(Cc5ccccc5CN4)[C@H](O)C3)nc12 [Example 44, (6-bromo-8-methylimidazo[1,2-a]pyridin-2-yl)((3R,3’R)-3′-hydroxy-1,4-dihydro-2H-spiro[isoquinoline-3,4′-piperidin]-1′-yl)methanone]	1.32 nM	42.1 nM	0.687 nM	–
O=C(c1cn2cc(C(F)(F)F)cnc2n1)N1CC[C@]2(Cc3ccccc3CN2)[C@H](O)C1 [Example 169, [(3R,3′R)-3′-hydroxy-1,4-dihydro-1′H,2H-spiro[isoquinoline-3,4′-piperidin]-1′-yl][6-(trifluoromethyl)imidazo[1,2-a]pyrimidin-2-yl]methanone]	89 nM	427 nM	1.51 nM	–
COc1nc2nc(C(=O)N3CC[C@]4(Cc5ccccc5CN4)[C@H](O)C3)cn2cc1Br (single isomer, unassigned) [Example 248]	9.35 nM	153 nM	0.556 nM	–
N#CC1(c2cnc3nc(C(=O)N4CC[C@]5(Cc6ccccc6CN5)[C@H](O)C4)cn3c2)CC12CC2 (single isomer, unassigned) [Example 83]	–	3160 nM	3.28 nM	90.8 nM
COc1ccc(C)cc1-n1cnc(C(=O)N2CC[C@]3(Cc4ccccc4CN3)[C@H](O)C2)c1 [Example 213, [(3R,3′R)-3′-hydroxy-1,4-dihydro-1′H,2H-spiro[isoquinoline-3,4′-piperidin]-1′-yl][1-(2-methoxy-5-methylphenyl)-1H-imidazol-4-yl]methanone]	209 nM	343 nM	4.33 nM	–
Cc1cc2nnc(C(=O)N3CC[C@]4(Cc5ccccc5CN4)[C@H](O)C3)c(C)n2n1 [Example 184, (4,7-dimethylpyrazolo[5,1-c][1,2,4]triazin-3-yl)((3R,3′R)-3′-hydroxy-1,4-dihydro-2H-spiro[isoquinoline-3,4′-piperidin]-1′-yl)methanone]	995 nM	21900 nM	16.2 nM	–
CCCOc1nc(C)ccc1C(=O)N1CC[C@]2(Cc3ccccc3CN2)[C@H](O)C1 [Example 201, [(3R,3′R)-3′-hydroxy-1,4-dihydro-1′H,2H-spiro[isoquinoline-3,4′-piperidin]-1′-yl](6-methyl-2-propoxy-3-pyridinyl)methanone]	168 nM	1020 nM	1.36 nM	–
O=C(c1cn(C2CC2)cn1)N1CC[C@]2(Cc3ccccc3CN2)[C@H](O)C1 [Example 222, (1-cyclopropyl-1H-imidazol-4-yl)[(3R,3′R)-3′-hydroxy-1,4-dihydro-1′H,2H-spiro[isoquinoline-3,4′-piperidin]-1′-yl]methanone]	≥ 10000 nM	25400 nM	432 nM	–
COc1nc(C)ccc1C(=O)N1CC[C@]2(Cc3ccccc3CN2)[C@H](O)C1 [Example 205, [(3R,3′R)-3′-hydroxy-1,4-dihydro-1′H,2H-spiro[isoquinoline-3,4′-piperidin]-1′-yl](2-methoxy-6-methyl-3-pyridinyl)methanone]	324 nM	2750 nM	2.8 nM	–
COc1cc2nc(C(=O)N3CC[C@]4(Cc5ccccc5CN4)[C@H](O)C3)cn2cc1Br [Example 125]	13.8 nM	298 nM	0.515 nM	–
O=C(c1cc2ncc(C(F)(F)F)cn2n1)N1CC[C@]2(Cc3ccccc3CN2)[C@H](O)C1 [Example 73, [(3R,3′R)-3′-hydroxy-1,4-dihydro-1′H,2H-spiro[isoquinoline-3,4′-piperidin]-1′-yl][6-(trifluoromethyl)pyrazolo[1,5-a]pyrimidin-2-yl]methanone]	339 nM	344 nM	4.43 nM	–
O=C(c1cn2cc(Br)nc(OC3COC3)c2n1)N1CC[C@]2(Cc3ccccc3CN2)[C@H](O)C1 [Example 12, (6-bromo-8-(oxetan-3-yloxy)imidazo[1,2-a]pyrazin-2-yl)((3R,3’R)-3′-hydroxy-1,4-dihydro-2H-spiro[isoquinoline-3,4′-piperidin]-1′-yl)methanone]	9.48 nM	159 nM	0.231 nM	–
O=C(c1cn2cc(Br)nc(OC3CCOC3)c2n1)N1CC[C@]2(Cc3ccccc3CN2)[C@H](O)C1 (single isomer, unassigned) [Example 98, (6-bromo-8-(((S or R)(tetrahydrofuran-3-yl)oxy)imidazo[1,2-a]pyrazin-2-yl)((3R,3′R)-3′-hydroxy-1,4-dihydro-2H-spiro[isoquinoline-3,4′-piperidin]-1′-yl)methanone]	6.86 nM	104 nM	0.191 nM	–
COCc1nc(C)cn2cc(C(=O)N3CC[C@]4(Cc5ccccc5CN4)[C@H](O)C3)nc12 [Example 250, [(3R,3′R)-3′-hydroxy-1,4-dihydro-1′H,2H-spiro[isoquinoline-3,4′-piperidin]-1′-yl][8-(methoxymethyl)-6-methylimidazo[1,2-a]pyrazin-2-yl]methanone]	1730 nM	–	610 nM	–
O=C(c1ccn(CC(F)(F)F)c(=O)c1)N1CC[C@]2(Cc3ccccc3CN2)[C@H](O)C1 [Example 45, 4-((3R,3′R)-3′-hydroxy-1,4-dihydro-2H-spiro[isoquinoline-3,4′-piperidine]-1′-carbonyl)-1-(2,2,2-trifluoroethyl)pyridin-2(1H)-one]	224 nM	16000 nM	70 nM	–
CC(O)c1cc(C(F)(F)F)cn2cc(C(=O)N3CC[C@]4(Cc5ccccc5CN4)[C@H](O)C3)nc12 (single isomer, unassigned) [Example 108]	12.9 nM	207 nM	4.25 nM	–
